Assay results: paper PMC6009956, “Design, synthesis and biological activity of N^4-phenylsubstituted-7H-pyrrolo[2,3-d]pyrimidin-4-amines as dual inhibitors of aurora kinase A and epidermal growth factor receptor kinase” (Journal of Enzyme Inhibition and Medicinal Chemistry, 2017)
Where two headings read alike, the source gives them in different places.

Experiments:
aurora A kinase (AURKA) = target: T1, aurora A kinase (AURKA) (Homo sapiens, UniProt O14965); assay: ADP-Glo kinase assay, Aurora A; type: biochemical
T1 construct: purchased BPS Bioscience (assay run externally by the vendor)
T1 sequence (O14965 1-403): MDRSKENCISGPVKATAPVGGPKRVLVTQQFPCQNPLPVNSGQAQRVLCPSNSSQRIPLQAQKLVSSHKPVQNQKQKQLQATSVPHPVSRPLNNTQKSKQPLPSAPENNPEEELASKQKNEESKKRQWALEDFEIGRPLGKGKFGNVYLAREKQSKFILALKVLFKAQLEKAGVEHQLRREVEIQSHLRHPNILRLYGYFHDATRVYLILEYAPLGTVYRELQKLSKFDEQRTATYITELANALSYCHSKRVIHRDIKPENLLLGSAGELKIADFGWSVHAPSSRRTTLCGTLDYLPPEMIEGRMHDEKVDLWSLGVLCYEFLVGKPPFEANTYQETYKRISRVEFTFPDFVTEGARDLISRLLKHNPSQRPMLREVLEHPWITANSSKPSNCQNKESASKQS

EGFR = EGFR (Homo sapiens, UniProt P00533); assay: ADP-Glo kinase assay, EGFR; type: biochemical; design: purchased BPS Bioscience (assay run externally by the vendor)
Chain of EGFR (P00533 25-1210): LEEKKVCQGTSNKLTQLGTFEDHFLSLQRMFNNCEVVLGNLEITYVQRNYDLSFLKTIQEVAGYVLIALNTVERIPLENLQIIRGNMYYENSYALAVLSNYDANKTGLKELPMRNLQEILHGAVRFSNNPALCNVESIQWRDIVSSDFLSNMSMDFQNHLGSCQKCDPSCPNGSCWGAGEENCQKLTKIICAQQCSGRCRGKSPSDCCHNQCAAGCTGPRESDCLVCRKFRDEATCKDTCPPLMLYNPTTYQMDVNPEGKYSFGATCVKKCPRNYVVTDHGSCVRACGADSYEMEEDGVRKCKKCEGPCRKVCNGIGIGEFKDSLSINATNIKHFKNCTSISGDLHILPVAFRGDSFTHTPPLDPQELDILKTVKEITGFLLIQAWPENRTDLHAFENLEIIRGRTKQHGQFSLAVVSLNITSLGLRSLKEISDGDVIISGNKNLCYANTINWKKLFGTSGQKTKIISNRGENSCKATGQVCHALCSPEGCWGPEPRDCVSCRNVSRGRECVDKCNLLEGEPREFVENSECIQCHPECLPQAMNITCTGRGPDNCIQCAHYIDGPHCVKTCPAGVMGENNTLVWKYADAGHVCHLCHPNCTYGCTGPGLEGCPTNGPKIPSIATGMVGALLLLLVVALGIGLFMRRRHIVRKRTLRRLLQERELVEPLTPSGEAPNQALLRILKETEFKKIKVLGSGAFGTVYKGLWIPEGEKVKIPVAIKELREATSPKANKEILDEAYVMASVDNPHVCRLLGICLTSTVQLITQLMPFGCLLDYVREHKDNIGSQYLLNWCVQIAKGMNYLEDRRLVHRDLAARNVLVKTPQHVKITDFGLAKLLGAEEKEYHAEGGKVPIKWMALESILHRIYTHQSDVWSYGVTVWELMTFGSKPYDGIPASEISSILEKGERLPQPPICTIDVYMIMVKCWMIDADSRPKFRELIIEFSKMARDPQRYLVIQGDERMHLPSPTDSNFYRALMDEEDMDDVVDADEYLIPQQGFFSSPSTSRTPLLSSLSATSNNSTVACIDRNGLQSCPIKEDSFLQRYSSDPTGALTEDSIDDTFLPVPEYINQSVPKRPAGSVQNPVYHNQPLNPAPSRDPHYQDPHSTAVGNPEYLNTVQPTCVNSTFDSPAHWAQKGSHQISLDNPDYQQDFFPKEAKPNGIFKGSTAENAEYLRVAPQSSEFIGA

[1] = test system: p-HH3 in FADU and SAS SCCHN cell lines; assay: Western blot of p-HH3 in FADU and SAS cells; type: cell-based; details: 10 nM
Procedure: Protein extracts (50 μg per lane) were electrophoretically separated on SDS-PAGE gels, transferred to membranes (Protran, Schleicher & Schuell, Dassel, Germany) and blotted with specific antibodies (actin, aurora A, aurora B: all from Sigma, Munich, Germany; S10-HH3: Millipore, Schwalbach, Germany; EGFR: Santa Cruz, Heidelberg, Germany; pEGFR: Invitrogen, Darmstadt, Germany; pAKT, pERK: both from New England Biolabs, Frankfurt, Germany).
Figure 4. Effects of compound 2 on EGFR and aurora kinases in growing SCCHN cell lines (A) Western blot analysis of EGFR (pEGFR, pERK, p-AKT) and aurora A (p-HH3) downstream target proteins following incubation with 100 μM compound 2 for the indicated time points in BHY and FADU SCCHN cell lines. (B) BHY and CAL cell lines treated for the indicated time points with 200 nM cetuximab. Western blot analysis of EGFR downstream targets. (long exposure and short exposure). […] Western blot analysis of p-HH3 at the indicated time points. Asterisk (*) represents unspecific band.

c1ccc(Cc2ccc(Nc3ncnc4[nH]ccc34)cc2)cc1 [Compound 18, N^4-(4-benzylphenyl)-7H-pyrrolo[2,3-d]pyrimidin-4-amine]
Fold better than compound 17 against AURKA (aurora A kinase (AURKA)): approximately two-fold
IC50 (aurora A kinase (AURKA); 10 µM ATP, triplicate, read-out: AURKA IC50 ± SD): 4950 ± 690 nM
IC50 (aurora A kinase (AURKA); 10 µM ATP/0.2 mg/ml Kemptide, read-out: Aurora A IC50 (dose-response curve, supplement)): 5000 nM
Aurora A % Activity Set1 (aurora A kinase (AURKA); Log[nM] 0): 110%
Aurora A % Activity Set2 (aurora A kinase (AURKA); Log[nM] 0): 93%
Aurora A % Activity Set3 (aurora A kinase (AURKA); Log[nM] 0): 104%
Aurora A % Activity Set1 (aurora A kinase (AURKA); Log[nM] 1.0): 103%
Aurora A % Activity Set2 (aurora A kinase (AURKA); Log[nM] 1.0): 93%
Aurora A % Activity Set3 (aurora A kinase (AURKA); Log[nM] 1.0): 101%
Aurora A % Activity Set1 (aurora A kinase (AURKA); Log[nM] 1.5): 105%
Aurora A % Activity Set2 (aurora A kinase (AURKA); Log[nM] 1.5): 96%
Aurora A % Activity Set3 (aurora A kinase (AURKA); Log[nM] 1.5): 105%
Aurora A % Activity Set1 (aurora A kinase (AURKA); Log[nM] 2.0): 103%
Aurora A % Activity Set2 (aurora A kinase (AURKA); Log[nM] 2.0): 93%
Aurora A % Activity Set3 (aurora A kinase (AURKA); Log[nM] 2.0): 100%
Aurora A % Activity Set1 (aurora A kinase (AURKA); Log[nM] 2.5): 90%
Aurora A % Activity Set2 (aurora A kinase (AURKA); Log[nM] 2.5): 86%
Aurora A % Activity Set3 (aurora A kinase (AURKA); Log[nM] 2.5): 93%
Aurora A % Activity Set1 (aurora A kinase (AURKA); Log[nM] 3.0): 77%
Aurora A % Activity Set2 (aurora A kinase (AURKA); Log[nM] 3.0): 73%
Aurora A % Activity Set3 (aurora A kinase (AURKA); Log[nM] 3.0): 85%
Aurora A % Activity Set1 (aurora A kinase (AURKA); Log[nM] 3.5): 51%
Aurora A % Activity Set2 (aurora A kinase (AURKA); Log[nM] 3.5): 45%
Aurora A % Activity Set3 (aurora A kinase (AURKA); Log[nM] 3.5): 47%
Aurora A % Activity Set1 (aurora A kinase (AURKA); Log[nM] 4.0): 32%
Aurora A % Activity Set2 (aurora A kinase (AURKA); Log[nM] 4.0): 30%
Aurora A % Activity Set3 (aurora A kinase (AURKA); Log[nM] 4.0): 31%
Aurora A % Activity Set1 (aurora A kinase (AURKA); Log[nM] 4.5): 29%
Aurora A % Activity Set2 (aurora A kinase (AURKA); Log[nM] 4.5): 26%
Aurora A % Activity Set3 (aurora A kinase (AURKA); Log[nM] 4.5): 26%
Aurora A % Activity Set1 (aurora A kinase (AURKA); Log[nM] 5.0): 30%
Aurora A % Activity Set2 (aurora A kinase (AURKA); Log[nM] 5.0): 26%
Aurora A % Activity Set3 (aurora A kinase (AURKA); Log[nM] 5.0): 26%
IC50 (EGFR; 10 µM ATP, triplicate, read-out: EGFR IC50 ± SD): 63.3 ± 4.58 nM
IC50 (EGFR; 10 µM ATP/0.2 mg/ml Poly-Glu-Tyr, read-out: EGFR IC50 (dose-response curve, supplement)): 63.3 nM
EGFR % Activity Set1 (EGFR; Log[nM] 0): 96%
EGFR % Activity Set2 (EGFR; Log[nM] 0): 92%
EGFR % Activity Set3 (EGFR; Log[nM] 0): 95%
EGFR % Activity Set1 (EGFR; Log[nM] 1.0): 88%
EGFR % Activity Set2 (EGFR; Log[nM] 1.0): 83%
EGFR % Activity Set3 (EGFR; Log[nM] 1.0): 88%
EGFR % Activity Set1 (EGFR; Log[nM] 1.5): 66%
EGFR % Activity Set2 (EGFR; Log[nM] 1.5): 62%
EGFR % Activity Set3 (EGFR; Log[nM] 1.5): 65%
EGFR % Activity Set1 (EGFR; Log[nM] 2.0): 42%
EGFR % Activity Set2 (EGFR; Log[nM] 2.0): 38%
EGFR % Activity Set3 (EGFR; Log[nM] 2.0): 43%
EGFR % Activity Set1 (EGFR; Log[nM] 2.5): 16%
EGFR % Activity Set2 (EGFR; Log[nM] 2.5): 16%
EGFR % Activity Set3 (EGFR; Log[nM] 2.5): 16%
EGFR % Activity Set1 (EGFR; Log[nM] 3.0): 8%
EGFR % Activity Set2 (EGFR; Log[nM] 3.0): 8%
EGFR % Activity Set3 (EGFR; Log[nM] 3.0): 9%
EGFR % Activity Set1 (EGFR; Log[nM] 3.5): 3%
EGFR % Activity Set2 (EGFR; Log[nM] 3.5): 3%
EGFR % Activity Set3 (EGFR; Log[nM] 3.5): 3%
EGFR % Activity Set1 (EGFR; Log[nM] 4.0): 2%
EGFR % Activity Set2 (EGFR; Log[nM] 4.0): 2%
EGFR % Activity Set3 (EGFR; Log[nM] 4.0): 2%
EGFR % Activity Set1 (EGFR; Log[nM] 4.5): 2%
EGFR % Activity Set2 (EGFR; Log[nM] 4.5): 2%
EGFR % Activity Set3 (EGFR; Log[nM] 4.5): 2%
EGFR % Activity Set1 (EGFR; Log[nM] 5.0): 2%
EGFR % Activity Set2 (EGFR; Log[nM] 5.0): 3%
EGFR % Activity Set3 (EGFR; Log[nM] 5.0): 2%

COc1cc(Nc2ncc3c(n2)-c2ccc(Cl)cc2C(c2c(F)cccc2OC)=NC3)ccc1C(=O)O [MLN8237]
Histone H3 phosphorylation (p-HH3) [1]: inhibition of histone H3 phosphorylation
